Data set [1] deals with AHF patients with SBP of ≥160 mmHg. The data set can be described thus: Dyspnea assessment by 100 mm VAS, VMAC scale and PDA. It is filed as in vivo, human. As to the method:
Dyspnea was assessed by a 100 mm VAS, in which a score of 0 was “no dyspnea” and a score of 100 represented “worst possible dyspnea.” Dyspnea was evaluated immediately prior to study drug administration, and at 15, 30, 45, 60, 120, 360 and 720 minutes afterward. In addition, the Vasodilation in the Management of Acute Congestive Heart Failure (VMAC) scale, a relative 7 point Likert score, and the Provocative Dyspnea Assessment (PDA) (Pang et al, Eur Heart J2008, 29) were both performed in the seated and supine positions and recorded.

The conditions of data set [2]: in vivo; cited from earlier work.
In data set [3] the test system is AHF patients with SBP of ≥160 mmHg. The experiment in a line: Randomized open label 13-center trial: blood pressure control, clevidipine vs standard of care. The format is in vivo, human. As to the method:
(§1) A randomized open label 13-center trial enrolled AHF patients with SBP of ≥160 mmHg, sitting dyspnea score ≥50 on a 100 mm VAS, and a physician's clinical diagnosis of AHF with pulmonary congestion by chest auscultation.
(§2) If the target blood pressure range was not reached within 30 minutes, or not maintained thereafter, alternative antihypertensive agents were allowed per physician discretion, with or without continuation of the study drug.
(§3) Two populations were analyzed. The “safety” population included all patients receiving any study drug, and was used for all safety analyses.

The test system is the same in data set [4]. The data set can be described thus: Safety analyses of the AHF trial (hypotension, adverse events, deaths). The method, then:
as §1, §2, §3
Historical ejection fraction data was recorded when available.

The mark [5] stands for this setting: AHF population, 30-minute target SBP range.

SMILES strings stand for the structures.

As for `O=[N+]([O-])OCC(CO[N+](=O)[O-])O[N+](=O)[O-]` [nitroglycerin], the “Speed of VAS improvement, SOC subsets” value in data set [1] (FIG. 2D, compared with clevidipine) is on record as “neither nitroglycerin nor nicardipine improved VAS as quickly as clevidipine”.
Turning to `CCCC(=O)OCOC(=O)C1=C(C)NC(C)=C(C(=O)OC)C1c1cccc(Cl)c1Cl` (stereo not drawn) [clevidipine], the Half-life entry in data set [2] is “about 1 minute”. For the same molecule, in data set [3] (setting [5]), the “Target blood pressure range achieved, % of patients” value was 70.5% and the “Target blood pressure range achieved, patients/total” value is 31/44. In data set [3] (in vivo), the “AUC above the target blood pressure, median” value came out at 327 mmHg×min/h; the “AUC below the target blood pressure, median” value is recorded as 0 mmHg×min/h; the “AUC outside the target blood pressure, median” value is 379 mmHg×min/h; the “Patients requiring additional antihypertensives” value is 15.9%. In data set [3] (in vivo), the “Rate of being within, but not below, the target blood pressure range” value is 45.5%. Besides, the “Median time to reach target blood pressure range” value in data set [3] (patients in which the target range was achieved) is listed as 15 min. Besides, in data set [1] (at 45 minutes, 100 mm dyspnea VAS), the “Mean VAS decrease from baseline” value was found to be 37.1 mm. Moreover, the “Effect on dyspnea compared with nicardipine” value in data set [1] (in vivo) was “significantly greater than the effect of nicardipine on dyspnea”. In data set [1] (vs SOC), the “VAS dyspnea scores over time (treatment×time effect)” value is given as “decreased more from baseline with clevidipine than SOC”; the “VMAC and PDA scores” value is “non-significant trends toward greater improvement with clevidipine than SOC”. Besides, in data set [4] (human, in vivo), the “Duration of SBP <90 mmHg” value is 3.3 min; the “Patients who exceeded their lower target blood pressure range limit” value is reported as 15 patients; the “Patients with at least one related TEAE, %” value amounted to 9.8%; the “Proportion of time that SBP was <90 mmHg while on study drug” value is 2.5%. Besides, in data set [4] (human, in vivo), the “SBP <90 mmHg occurred, % of patients” value was 5.9%; the “SBP <90 mmHg occurred, patients” value is 3 patients; the “Study drug related TEAE: Abdominal discomfort, %” value turned out to be 2.0%; the “Study drug related TEAE: Abdominal pain, %” value was 2.0%. Moreover, in data set [4] (human, in vivo), the “Study drug related TEAE: Blurred vision, %” value turned out to be 2.0%; the “Study drug related TEAE: Flushing, %” value was found to be 2.0%; the “Study drug related TEAE: Headache, %” value is recorded as 2.0%; the “Study drug related TEAE: Myalgia, %” value came to 2.0%. In data set [4] (human, in vivo), the “Study drug related TEAE: Nausea, %” value stood at 2.0% and the “Study drug related TEAE: Ventricular tachycardia, %” value is reported as 2.0%. The “Incidence of serious adverse events” value in data set [4] (human, in vivo, 30 days) was found to be 23.5%. Also, in data set [4] (in vivo), the “Mean by which the lower target limit was exceeded” value turned out to be 8.7 mmHg; the “Mean heart rate change from baseline to 30 minutes” value is 2.6 bpm; the “Symptomatic hypotension, patients” value is “one”. Further, the “Patients expired within 30 days of treatment” value in data set [4] (none during study drug administration) turned out to be 3 patients.
